# In patent US20240024479A1, “NK CELLS OR T CELLS EXPRESSING CHIMERIC HEMATOPOIETIC GROWTH FACTOR RECEPTORS AND METHODS OF USE” (The United States of America, as represented by the …, priority 2020, published 2024):
# Legend:
# Type in all cases: cell-based, human
# c-MPL+ KHYG-1 cells = experiment: In vitro cell expansion of c-MPL+ KHYG-1 cells
# Text: Lentiviral production and transduction: Lentivirus gene expression vectors encoding EGFP-P2A linker-human EPOR or EGFP-P2A-human c-MPL were cloned according to our design by VectorBuilder (TX, USA). Plasmid DNA for the above and pCMV-dR8.2 dvpr and pCMV-VSV-G packaging plasmids was purified using ZymoPUREII-EndoZero plasmid maxiprep kit (Zymo Research, CA). Lentiviral particles were generated with HEK293T cells and Lipofectamine3000 reagent (Thermo Fisher Scientific, MA) following the manufacturers' instructions. Viral supernatant was harvested at 24 and 48 hours, pooled, and concentrated with lenti-X concentrator (Takara Bio, Japan) or by centrifugation at 18,600 rpm for 2 hours at 4° C. […] After 5 days post-transduction, cells were stained and sorted with fluorescence-activated cell sorting (FACS) using a BD FACSAria II to purify GFP^+EPOR^+ and GFP^+c-MPL^+ NK cell populations.
# In vitro cell expansion cultures: The NK-92 (5×10^4 cell/ml) and KHYG-1 (1×10^4 cell/ml) cells were cultured in 1 ml of complete medium in 24-well plate. […] Trypan blue negative cells were counted every other day. […] Viable cells were counted and percentage of GFP^+ cells was acquired on indicated days (NK: day 4 and 6, T: day 3 and 6). The fold change of GFP^+ cells was calculated by multiplying the counted cell number times the fraction GFP^+.
# GFP+ MPL+ NK cells = experiment: Degranulation assay and cytokine production, c-MPL-transduced primary NK cells with K562
# Protocol: (§1) To examine degranulation, cells were washed after two hours and stained with anti-CD107a (H4A3) (BioLegend). To assay cytokine production, GolgiPlug and GolgiStop (BD Biosciences) were added at manufacturer's recommended concentrations within the first hour of co-culture with K562. After 4 hours, cells were washed and stained for cell surface markers, then stained intracellularly with mAb recognizing TNF-α (Mab 11) and IFN-γ (B27) (BD Biosciences).
# Raji tumor cells = experiment: Flow cytometry based killing assay, c-MPL+ NK-92 effectors vs Raji; conditions: c-MPL+ NK-92 exposed to TPO+LD IL-2, 4 hours
# Protocol: (§2) The target cells were labeled with 1 μM cell trace violet in some experiments (Thermo Fisher Scientific). The effector and target cells were incubated together in duplicate wells at specific E:T ratio in complete medium without cytokines for 4 hours (total cell number: 200,000 to 250,000 per well in 96-well plate). 7-AAD and Sphero AccuCount Fluorescent particles (Spherotech, IL) were added before analysis by flow cytometry. The absolute number of viable 7-AAD negative target cells was calculated according to bead numbers added (Cooper et al., Leukemia 32:1970-1983, 2018). The percentage of dead cells was calculated relative to target cell only control wells.
# c-MPL transduced T cells = experiment: Competitive expansion of c-MPL-transduced primary T cells
# Protocol: (§3) In vitro cell expansion cultures: The NK-92 (5×10^4 cell/ml) and KHYG-1 (1×10^4 cell/ml) cells were cultured in 1 ml of complete medium in 24-well plate. […] Trypan blue negative cells were counted every other day. […] For competitive primary NK and T cell expansion assay, all transduced cells (5×10^5/ml for NK and 4×10^5/ml for T cell) containing a mixture of GFP positive (transduced) and GFP negative (untransduced) cells were plated on day 0. Fresh medium with appropriate supplements was replaced every other day for NK cells and only on day 3 for T cell experiment. Viable cells were counted and percentage of GFP^+ cells was acquired on indicated days (NK: day 4 and 6, T: day 3 and 6). The fold change of GFP^+ cells was calculated by multiplying the counted cell number times the fraction GFP^+.
# [1] = system: untransduced control cells; experiment: Degranulation assay and cytokine production, untransduced control cells; conditions: TPO administration
# Protocol: as §1
# 721.221 = experiment: Flow cytometry based killing assay, c-MPL+ NK-92 effectors vs 721.221; conditions: c-MPL+ NK-92 with TPO administration
# Protocol: as §2
# parental NK-92 cell line = experiment: In vitro cell expansion of parental NK-92; conditions: EPO or TPO administration
# Protocol: In vitro cell expansion cultures: The NK-92 (5×10^4 cell/ml) and KHYG-1 (1×10^4 cell/ml) cells were cultured in 1 ml of complete medium in 24-well plate. […] Trypan blue negative cells were counted every other day. […] The short-term cell expansion assay was performed in similar fashion, except cells were initially cultured without IL-2 overnight before adding different cytokines and enumerating the cell number. For competitive primary NK and T cell expansion assay, all transduced cells (5×10^5/ml for NK and 4×10^5/ml for T cell) containing a mixture of GFP positive (transduced) and GFP negative (untransduced) cells were plated on day 0. Fresh medium with appropriate supplements was replaced every other day for NK cells and only on day 3 for T cell experiment. Viable cells were counted and percentage of GFP^+ cells was acquired on indicated days (NK: day 4 and 6, T: day 3 and 6). The fold change of GFP^+ cells was calculated by multiplying the counted cell number times the fraction GFP^+.
# GFP+ c-MPL+ NK cells = experiment: Competitive expansion of c-MPL-transduced primary NK cells; conditions: day 6
# Protocol: as §3
# K562 = experiment: Flow cytometry based killing assay, c-MPL+ NK-92 effectors vs K562; conditions: c-MPL+ NK-92 with TPO administration
# Protocol: as §2
# c-MPL+ NK-92 cells = experiment: Flow cytometry of cell signaling and anti-apoptotic proteins, c-MPL+ NK-92
# Protocol: Staining was performed in phosphate-buffered saline (PBS) with 2% FBS and 2 mM EDTA and analyzed on a BD LSRFortessa machine. If intracellular staining was required, BD cytofix/cytoperm (BD Biosciences) was applied for cell fixation and permeabilization after surface staining. The apoptosis assay was performed using PE annexinV apoptosis detection kit (BD Biosciences). The data were analyzed on FlowJo software.
# Expression of target proteins was evaluated afterward by flow cytometry as described above.
# GFP+ MPL+ population = experiment: Parallel in vitro cultures of the mixed transduced NK cells; conditions: only TPO
substance,measurement,setting,value
"TPO: recombinant human thrombopoietin, ligand of the c-MPL receptor; 50 ng/ml rhTPO (R&D)",cell growth of transduced KHYG-1 cells,c-MPL+ KHYG-1 cells; TPO alone,insufficient to maintain cell growth
same,proliferative response of receptor-transduced KHYG-1 NK cells,c-MPL+ KHYG-1 cells; TPO with low-dose IL-2 (1 U/ml or 5 U/ml),synergized
same,degranulation in GFP+ MPL+ NK cells (CD107a),"GFP+ MPL+ NK cells; TPO added to 25 U/ml IL-2, 4 days, K562 1:1",83%
same,percent of GFP MPL transduced NK cells that produced IFN-γ or TNF-α,"GFP+ MPL+ NK cells; TPO added to 25 U/ml IL-2 vs 25 U/ml IL-2 alone, co-cultured with K562",considerably augmented
same,mean percentage of dead Raji cells,Raji tumor cells; E:T 1:1,84%
same,mean percentage of dead Raji cells,Raji tumor cells; E:T 10:1,85%
same,GFP fold-expansion of c-MPL transduced T cells,"c-MPL transduced T cells; D6, TPO alone",5.96 fold
same,GFP fold-expansion of c-MPL+ activated T cells,"c-MPL transduced T cells; day 6, TPO plus LD IL-2",11.39 fold
same,degranulation or cytokine production of untransduced control cells,[1],no measured effects
same,killing of 721.221 tumor targets,721.221,no significant killing augmentation
same,expansion of the parental NK-92 cell line,parental NK-92 cell line,did not alter
same,fold change of GFP+ c-MPL+ NK cells,GFP+ c-MPL+ NK cells; TPO plus 10 U/ml LD IL-2,24.3 fold
same,fold change of GFP+ c-MPL+ NK cells,GFP+ c-MPL+ NK cells; TPO+25 U/ml IL-2,34.1 fold
same,killing of K562 tumor targets,K562,no significant killing augmentation
same,pS6 expression,c-MPL+ NK-92 cells; TPO added to LD IL-2,11.84
same,"STAT5 phosphorylation, additivity",c-MPL+ NK-92 cells; TPO combined with LD IL-2,No additive effects
same,pSTAT5 expression,"c-MPL+ NK-92 cells; TPO vs no IL-2 control, comparable to LD IL-2",appeared to increase pSTAT5 expression
same,Bcl-2 RMFI,"c-MPL+ NK-92 cells; TPO, 24 hours, no IL-2",64.54
same,Bcl-xL RMFI,"c-MPL+ NK-92 cells; TPO, 24 hours, no IL-2",4.52
same,phospho-p44/42 MAPK expression,"c-MPL+ NK-92 cells; cultures supplemented with IL-2 or TPO, 15 minutes",No alteration
same,GFP+ MPL+ population in parallel cultures,GFP+ MPL+ population,31%
